# Assay results reported in patent US8921376B2, “Pyrrolopyridines useful as inhibitors of protein kinase” (Vertex Pharmaceuticals Incorporated, priority 2005, dated 2014).
# pKi: −log10 of the molar value.
# Key:
# Assay type in all cases: biochemical
# [1] = target: ROCK I (Homo sapiens, UniProt Q13464); test: ROCK-I inhibition assay (radioactive enzyme assay, MBP substrate)
# Method in brief: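 Human ROCK at 5 nM phosphorylated 27 μM myelin basic protein with 13 μM [γ-33P]ATP (final) in HEPES pH 7.5, MgCl2, NaCl, DTT and 1.5% DMSO. Reactions ran 2 h at room temperature before TCA quench and filter-plate scintillation counting. After background subtraction, data were fit to give Ki(app).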
# [2] = target: JAK2 (Homo sapiens, UniProt O60674); test: JAK2 inhibition assay (as Example 3 with JAK-2 enzyme)
# Method in brief: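 Radiometric JAK2 kinase assay: poly(Glu)4Tyr substrate at final 15 μM, ATP at final 12 μM with [33P]; buffer 100 mM HEPES pH 7.4, 1 mM DTT, 10 mM MgCl2, 25 mM NaCl, 0.01% BSA. 20 min at 25 °C, TCA-stopped, 33P incorporation counted after filter capture.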
# [3] = target: T1, JAK3 (Homo sapiens, UniProt P52333); test: JAK3 inhibition assay (33P incorporation into poly(Glu)4Tyr)
# T1 sequence (P52333 1-1124): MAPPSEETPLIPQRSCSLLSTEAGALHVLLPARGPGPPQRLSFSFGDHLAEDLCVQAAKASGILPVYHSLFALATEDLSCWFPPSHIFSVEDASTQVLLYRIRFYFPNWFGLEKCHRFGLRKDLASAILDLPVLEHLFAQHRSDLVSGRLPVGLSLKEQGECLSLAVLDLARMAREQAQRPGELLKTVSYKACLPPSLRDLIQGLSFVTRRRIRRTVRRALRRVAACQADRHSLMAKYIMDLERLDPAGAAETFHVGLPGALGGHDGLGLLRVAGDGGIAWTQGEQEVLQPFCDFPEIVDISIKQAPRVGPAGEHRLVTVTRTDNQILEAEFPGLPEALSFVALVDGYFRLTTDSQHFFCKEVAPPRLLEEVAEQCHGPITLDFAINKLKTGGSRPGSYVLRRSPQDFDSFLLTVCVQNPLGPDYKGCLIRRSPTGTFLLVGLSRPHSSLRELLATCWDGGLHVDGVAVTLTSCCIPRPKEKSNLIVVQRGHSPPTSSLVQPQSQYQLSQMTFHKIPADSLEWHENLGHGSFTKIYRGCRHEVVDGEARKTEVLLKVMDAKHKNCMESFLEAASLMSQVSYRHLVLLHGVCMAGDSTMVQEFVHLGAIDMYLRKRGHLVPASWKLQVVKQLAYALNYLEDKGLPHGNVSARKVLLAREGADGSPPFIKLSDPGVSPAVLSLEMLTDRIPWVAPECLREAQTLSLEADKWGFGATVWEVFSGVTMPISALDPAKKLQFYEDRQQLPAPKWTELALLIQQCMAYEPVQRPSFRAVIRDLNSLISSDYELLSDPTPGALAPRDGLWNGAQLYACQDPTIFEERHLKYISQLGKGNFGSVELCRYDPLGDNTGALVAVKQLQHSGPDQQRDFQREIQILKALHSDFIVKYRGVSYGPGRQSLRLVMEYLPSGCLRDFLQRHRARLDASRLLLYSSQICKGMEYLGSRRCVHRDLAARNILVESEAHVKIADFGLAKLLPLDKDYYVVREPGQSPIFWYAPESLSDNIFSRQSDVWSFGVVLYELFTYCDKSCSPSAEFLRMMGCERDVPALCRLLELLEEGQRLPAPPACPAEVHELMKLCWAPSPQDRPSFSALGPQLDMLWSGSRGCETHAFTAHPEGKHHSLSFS
# Method in brief: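 Human JAK3 at 1 nM phosphorylated 1 μM poly(Glu)4Tyr using 5 μM [33P]ATP in HEPES pH 7.4 buffer with MgCl2, DTT and BSA. Reactions ran 20 min at 25° C. and were stopped with TCA. 33P incorporation was measured by scintillation after glass-fiber filter capture.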
# [4] = Table 6, enzyme inhibition data (Ki)
# [5] = enzyme inhibition, Ki(app), Table 5
# Sequence of JAK2 (O60674 whole entry): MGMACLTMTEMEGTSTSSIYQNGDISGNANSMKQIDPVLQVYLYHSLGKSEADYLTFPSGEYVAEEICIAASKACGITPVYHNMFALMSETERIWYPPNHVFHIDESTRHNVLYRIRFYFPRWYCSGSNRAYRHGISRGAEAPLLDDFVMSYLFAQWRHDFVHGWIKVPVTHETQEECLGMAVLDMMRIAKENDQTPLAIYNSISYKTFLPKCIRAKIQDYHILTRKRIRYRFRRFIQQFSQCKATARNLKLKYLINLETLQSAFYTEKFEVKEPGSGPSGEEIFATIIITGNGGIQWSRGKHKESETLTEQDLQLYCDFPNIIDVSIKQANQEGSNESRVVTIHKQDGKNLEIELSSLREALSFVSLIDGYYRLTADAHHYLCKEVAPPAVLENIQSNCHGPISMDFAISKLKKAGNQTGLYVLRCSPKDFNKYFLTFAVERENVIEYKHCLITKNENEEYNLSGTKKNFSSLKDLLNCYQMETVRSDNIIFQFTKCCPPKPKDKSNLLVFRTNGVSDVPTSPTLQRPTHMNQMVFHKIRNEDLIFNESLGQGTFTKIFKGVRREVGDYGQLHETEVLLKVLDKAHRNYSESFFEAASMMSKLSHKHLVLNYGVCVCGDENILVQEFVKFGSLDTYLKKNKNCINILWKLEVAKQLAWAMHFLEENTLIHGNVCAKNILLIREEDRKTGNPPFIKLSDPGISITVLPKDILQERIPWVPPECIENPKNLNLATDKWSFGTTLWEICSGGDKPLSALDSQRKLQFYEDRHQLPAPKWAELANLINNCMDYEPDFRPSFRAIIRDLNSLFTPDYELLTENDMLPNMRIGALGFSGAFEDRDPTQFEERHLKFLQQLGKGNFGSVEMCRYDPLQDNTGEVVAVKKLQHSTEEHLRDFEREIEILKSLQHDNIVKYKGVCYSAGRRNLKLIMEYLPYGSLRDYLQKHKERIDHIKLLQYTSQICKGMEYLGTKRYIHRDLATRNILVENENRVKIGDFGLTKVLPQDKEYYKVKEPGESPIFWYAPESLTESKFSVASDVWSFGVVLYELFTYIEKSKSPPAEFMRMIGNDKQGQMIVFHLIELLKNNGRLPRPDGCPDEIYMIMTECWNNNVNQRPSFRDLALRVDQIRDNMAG
# Sequence of ROCK I (Q13464 whole entry): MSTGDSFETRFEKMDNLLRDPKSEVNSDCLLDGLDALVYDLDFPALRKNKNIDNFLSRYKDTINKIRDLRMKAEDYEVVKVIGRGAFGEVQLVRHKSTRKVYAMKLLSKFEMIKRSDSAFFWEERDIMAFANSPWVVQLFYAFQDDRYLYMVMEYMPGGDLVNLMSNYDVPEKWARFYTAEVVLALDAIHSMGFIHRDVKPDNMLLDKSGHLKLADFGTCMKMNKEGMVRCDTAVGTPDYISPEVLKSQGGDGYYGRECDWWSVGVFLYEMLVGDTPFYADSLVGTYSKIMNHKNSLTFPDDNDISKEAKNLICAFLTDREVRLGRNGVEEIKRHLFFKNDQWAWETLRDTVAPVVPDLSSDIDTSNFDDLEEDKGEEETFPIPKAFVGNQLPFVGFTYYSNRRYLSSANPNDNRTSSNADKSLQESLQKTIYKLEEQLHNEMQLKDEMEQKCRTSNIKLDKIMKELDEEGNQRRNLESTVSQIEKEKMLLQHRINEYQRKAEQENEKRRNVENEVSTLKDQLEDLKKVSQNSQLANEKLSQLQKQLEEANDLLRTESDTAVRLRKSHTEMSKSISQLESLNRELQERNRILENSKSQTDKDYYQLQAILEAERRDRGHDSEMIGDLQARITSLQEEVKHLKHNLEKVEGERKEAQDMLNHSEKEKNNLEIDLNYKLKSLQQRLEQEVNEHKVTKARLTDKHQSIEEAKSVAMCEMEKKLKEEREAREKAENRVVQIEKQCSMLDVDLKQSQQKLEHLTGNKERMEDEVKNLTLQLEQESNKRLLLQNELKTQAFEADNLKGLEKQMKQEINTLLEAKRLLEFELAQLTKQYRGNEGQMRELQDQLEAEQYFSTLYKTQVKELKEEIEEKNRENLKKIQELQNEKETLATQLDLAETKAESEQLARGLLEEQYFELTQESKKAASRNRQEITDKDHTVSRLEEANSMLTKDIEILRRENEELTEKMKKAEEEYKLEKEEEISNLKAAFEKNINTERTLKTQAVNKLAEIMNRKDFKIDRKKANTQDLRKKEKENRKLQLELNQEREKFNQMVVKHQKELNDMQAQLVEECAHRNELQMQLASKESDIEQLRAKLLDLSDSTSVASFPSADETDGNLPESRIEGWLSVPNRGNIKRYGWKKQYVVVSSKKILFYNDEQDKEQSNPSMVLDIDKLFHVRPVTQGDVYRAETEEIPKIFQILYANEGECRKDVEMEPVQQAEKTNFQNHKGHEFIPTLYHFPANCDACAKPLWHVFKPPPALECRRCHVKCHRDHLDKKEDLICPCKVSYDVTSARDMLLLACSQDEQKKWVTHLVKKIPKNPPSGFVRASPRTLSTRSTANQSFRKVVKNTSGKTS
"pKi [1, 4]","pKi [2, 4]","pKi [3, 4]","pKi [1, 5]","pKi ([2]; enzyme inhibition, Table 5)","pKi ([3]; enzyme inhibition, Table 5)",SMILES
> 6.30,> 6.30,5.30 to 6.30,,,,O=C(c1csc(-c2ccnc3[nH]ccc23)n1)N1CCCC1 [compound 418]
,,,5.30 to 6.30,5.30 to 6.30,5.30 to 6.30,"c1cc(-c2ccnc3[nH]ccc23)nc(N2CCc3ccccc3C2)c1 [compound 38, 2-(6-(1H-Pyrrolo[2,3-b]pyridin-4-yl)pyridin-2-yl)-1,2,3,4-tetrahydroisoquinoline]"
< 5.40,< 5.30,< 5.30,,,,NC(=O)c1ccccc1-c1ccnc2[nH]ccc12 [compound 380]
> 6.30,> 6.30,> 6.30,,,,O=C(NCC(F)(F)F)c1ccc(-c2ccnc3[nH]ccc23)cc1 [compound 269]
,,,5.30 to 6.30,5.30 to 6.30,5.30 to 6.30,"CC(=O)Nc1cccc(-c2ccnc3[nH]ccc23)c1 [compound 107, N-[3-(1H-Pyrrolo[2,3-b]pyridin-4-yl)-phenyl]-acetamide]"
,,,> 6.30,> 6.30,> 6.30,"C1=C(c2ccnc3[nH]ccc23)CCCC1 [compound 30, 4-Cyclohexenyl-1H-pyrrolo[2,3b]pyridine]"
,,,5.30 to 6.30,< 5.30,< 5.30,Nc1ccccc1-c1ccnc2[nH]ccc12 [compound 119]
> 6.30,> 6.30,> 6.30,,,,N#CCNC(=O)c1cc(-c2ccnc3[nH]ccc23)c[nH]1 [compound 295]
5.30 to 6.30,5.30 to 6.30,5.30 to 6.30,,,,CCOc1ccccc1-c1ccnc2[nH]ccc12 [compound 223]
< 5.40,< 5.30,< 5.30,,,,c1ccc(COc2ccccc2-c2ccnc3[nH]ccc23)cc1 [compound 225]
> 6.30,> 6.30,> 6.30,,,,CCN(Cc1ccccc1)C(=O)c1csc(-c2ccnc3[nH]ccc23)n1 [compound 404]
> 6.30,> 6.30,> 6.30,,,,CC1CCC(C)N1C(=O)c1cc(-c2ccnc3[nH]ccc23)c[nH]1 (stereo not drawn) [compound 375]
< 5.40,5.30 to 6.30,> 6.30,,,,O=C(NCC(F)(F)F)[C@H]1CCCCN1c1ccnc(-c2ccnc3[nH]ccc23)n1 [compound 215]
< 5.40,5.30 to 6.30,5.30 to 6.30,,,,CCOC(=O)C1CCN(C(=O)c2cc(-c3c(Cl)cnc4[nH]ccc34)c[nH]2)CC1 [compound 348]
5.30 to 6.30,> 6.30,> 6.30,,,,N#CCC(=O)N1CC[C@@H](Nc2c(Cl)cnc3[nH]ccc23)C1 [compound 190]
5.30 to 6.30,> 6.30,> 6.30,,,,CCN(Cc1ccccc1)C(=O)c1cc(-c2c(Cl)cnc3[nH]ccc23)c[nH]1 [compound 344]
,,,5.30 to 6.30,< 5.30,5.30 to 6.30,"Cc1n[nH]c(C)c1-c1ccnc2[nH]ccc12 [compound 124, 4-(3,5-Dimethyl-1H-pyrazol-4-yl)-1H-pyrrolo[2,3-b]pyridine]"
5.30 to 6.30,> 6.30,> 6.30,,,,CCCOC(=O)N1CC[C@@H](Nc2c(Cl)cnc3[nH]ccc23)C1 [compound 171]
,,,5.30 to 6.30,5.30 to 6.30,5.30 to 6.30,"Fc1cccc(-c2ccnc3[nH]ccc23)n1 [compound 50, 4-(6-fluoropyridin-2-yl)-1H-pyrrolo[2,3-b]pyridine]"
> 6.30,> 6.30,> 6.30,,,,CCN(CCC#N)C(=O)c1ccc(-c2ccnc3[nH]ccc23)s1 [compound 314]
,,,5.30 to 6.30,< 5.30,< 5.30,CC(=O)Nc1ccccc1-c1ccnc2[nH]ccc12 [compound 118]

# Further lines, the compound ahead of its results:
SMILES,"pKi [1, 4]","pKi [2, 4]","pKi [3, 4]","pKi [1, 5]","pKi ([2]; enzyme inhibition, Table 5)","pKi ([3]; enzyme inhibition, Table 5)"
CCCN(CC1CC1)C(=O)c1cc(-c2c(Cl)cnc3[nH]ccc23)c[nH]1 [compound 334],5.30 to 6.30,> 6.30,> 6.30,,,
"Clc1cnc2[nH]ccc2c1-c1ccsc1 [compound 82, 5-Chloro-4-(thiophen-3-yl)-1H-pyrrolo[2,3b]pyridine]",,,,5.30 to 6.30,> 6.30,> 6.30
"Fc1cccc(-c2c(Cl)cnc3[nH]ccc23)n1 [compound 48, 5-chloro-4-(6-fluoropyridin-2-yl)-1H-pyrrolo[2,3-b]pyridine]",,,,5.30 to 6.30,> 6.30,> 6.30
"c1cc(NCc2ccc3c(c2)OCO3)nc(-c2ccnc3[nH]ccc23)c1 [compound 60, N-((Benzo[d][1,3]dioxol-6-yl)methyl)-6-(1H-pyrrolo[2,3-b]pyridin-4-yl)pyridin-2-amine]",,,,5.30 to 6.30,5.30 to 6.30,5.30 to 6.30
"CC(C)N(C)c1cccc(-c2ccnc3[nH]ccc23)n1 [compound 61, N-Isopropyl-N-methyl-6-(1H-pyrrolo[2,3-b]pyridin-4-yl)pyridin-2-amine]",,,,5.30 to 6.30,> 6.30,5.30 to 6.30
N#CCCN(Cc1cccnc1)C(=O)c1cc(-c2c(Cl)cnc3[nH]ccc23)c[nH]1 [compound 331],5.30 to 6.30,> 6.30,> 6.30,,,
"OCc1cccc(-c2ccnc3[nH]ccc23)c1 [compound 49, [3-(1H-Pyrrolo[2,3-b]pyridin-4-yl)-phenyl]-methanol]",,,,> 6.30,5.30 to 6.30,> 6.30
O=C(NC1CC1)c1ccc(-c2ccnc3[nH]ccc23)cc1 [compound 270],5.30 to 6.30,> 6.30,5.30 to 6.30,,,
O=C(c1csc(-c2ccnc3[nH]ccc23)n1)N1CCC(CO)CC1 [compound 411],5.30 to 6.30,5.30 to 6.30,5.30 to 6.30,,,
CC(=O)c1ccc(-c2c(Cl)cnc3[nH]ccc23)s1 [compound 145],< 5.40,> 6.30,> 6.30,,,
CCCN(CCC)C(=O)c1cc(-c2c(Cl)cnc3[nH]ccc23)c[nH]1 [compound 340],< 5.40,> 6.30,> 6.30,,,
CCCNC(=O)c1ccc(-c2ccnc3[nH]ccc23)cc1 [compound 267],> 6.30,> 6.30,> 6.30,,,
Clc1cnc2[nH]ccc2c1NC1CCCN(Cc2ccccc2)C1 (stereo not drawn) [compound 157],> 6.30,> 6.30,> 6.30,,,
O=C(NCC(F)(F)F)[C@H]1CCCN1c1nc(-c2ccnc3[nH]ccc23)ncc1F [compound 198],< 5.40,5.30 to 6.30,5.30 to 6.30,,,
"CC(=O)N1CCCN(c2cccc(-c3c(Cl)cnc4[nH]ccc34)n2)CC1 [compound 76, 1-(4-(6-(5-Chloro-1H-pyrrolo[2,3-b]pyridin-4-yl)pyridin-2-yl)-1,4-diazepan-1-yl)ethanone]",,,,5.30 to 6.30,> 6.30,> 6.30
"Clc1cnc2[nH]ccc2c1NC1CCCC1 [compound 127, 5-chloro-N-cyclopentyl-1H-pyrrolo[2,3-b]pyridin-4-amine]",,,,> 6.30,> 6.30,> 6.30
Clc1cnc2[nH]ccc2c1-c1cc2ccccc2o1 [compound 138],< 5.40,> 6.30,> 6.30,,,
CCNC(=O)c1cc(-c2ccnc3[nH]ccc23)c[nH]1 [compound 282],> 6.30,> 6.30,> 6.30,,,
C[C@@H](Nc1ccnc(-c2ccnc3[nH]ccc23)n1)C(=O)NCC(F)(F)F [compound 202],< 5.40,5.30 to 6.30,> 6.30,,,
CC(C)(C)C(=O)Nc1ncccc1-c1ccnc2[nH]ccc12 [compound 194],< 5.40,< 5.30,< 5.30,,,
CCNC(=O)c1cccc(-c2ccnc3[nH]ccc23)c1 [compound 255],5.30 to 6.30,5.30 to 6.30,5.30 to 6.30,,,
